Experimental data taken from patent US11716994B2, “Combinations of Yersinia entomophaga and pesticides or other substances” (priority 2017, dated 2023).
Where “and” joins values, the source holds several entries; their conditions need not be identical. Equal values may be shown once. Read-outs that look alike come from different tables or passages of the source.

Assays:
[1] = tested on: diamondback moth; assay: whole plant or invertebrate; conditions: for LT50 (95% confidence intervals) / LT50 (95% confidence intervals) in days: 2nd instar diamondback moth; for LT50 Chem. / % Mort. Chem.: Diamondback moth; for LT50 (95% confidence intervals) in days: Probit analysis
Excerpt: (§1) These were set to dry for 1 hr.
as §1
These were set to dry for 1 hr. Cabbage disks were then dipped in either 1% Luria broth (LB) media solution (controls and thiacloprid alone treatments) or in 1% cell free filtrate from a culture Y. entomophaga isolate O24G3R (Y. entomophaga alone or in combination with thiacloprid treatments).

[2] = tested on: cabbage looper; conditions: Cabbage Looper, clothianidin 60 mg/L
[3] = tested on: fall armyworm; assay: Leaf disk mortality assay, Y. entomophaga cells with chemical insecticides; conditions: for LT50 (95% confidence intervals) in days / LT50 (95% confidence intervals): 3rd instar; for mortality at 60 µg/mL / mortality at 19 µg/mL / mortality at 300 µg/mL: Spodoptera frugiperda, foliar; for % Mort. Chem. / LT50 Chem.: fall armyworm
[4] = tested on: black cutworm; assay: as above; conditions: for LT50 Chem.: black cutworm
[5] = tested on: cabbage looper
[6] = tested on: Colorado potato beetle; assay: Tomato leaf disk mortality assay, Y. entomophaga cells with chemical insecticides; conditions: for mortality at 120 µg/mL: Leptinotarsa decemlineata, in Solanum lycopersicum, foliar

CN/C(=N\[N+](=O)[O-])NCc1cnc(Cl)s1 [Clothianidin] was tested, and the “LT50 (95% confidence intervals)” value ([1]; clothianidin 60 mg/L, O43NEW filtrate 1%, alone or combined) was 6.120 days, the “LT50 Chem.” value ([1]; clothianidin 60 mg/L) was 6.12 days and the “% Mort. Chem.” value ([1]; clothianidin 60 mg/L, 4 DAT) was 47%. The mortality at 60 µg/mL ([1]; Plutella xylostella, foliar, 96 h, read-out: % Mortality (4DAT), 2nd instar diamondback moth, clothianidin 60 mg/L, O43NEW filtrate 1%, alone or combined, 4 DAT, Abbott's corrected) was 47%, the mortality at 60 µg/mL ([1]; Plutella xylostella, foliar, 120 h, read-out: % Mortality (5DAT), 2nd instar diamondback moth, clothianidin 60 mg/L, O43NEW filtrate 1%, alone or combined, 5 DAT, Abbott's corrected) was 53% and the “LT50 Chem.” value [2] was 9.07 days. The “% Mort. Chem.” value ([2]; 5 DAT) was 30%, the “LT50 (95% confidence intervals) in days” value ([3]; clothianidin 60 mg/L, isolate O24G3R 1×10^5 cfu/mL) was 9.38 (8.57-10.27) days and the “LT50 (95% confidence intervals) in days” value ([3]; clothianidin 60 mg/L, isolate O43NEW 1×10^5 cfu/mL) was 10.94 (9.97-12.03) days. For the same molecule, the “LT50 (95% confidence intervals) in days” value ([3]; clothianidin 60 mg/L, isolate O333A4 1×10^5 cfu/mL) was 22.94 (19.21-27.62) days, the mortality at 60 µg/mL ([3]; 96 h, read-out: % Mortality (4DAT), 3rd instar, clothianidin 60 mg/L, isolate O333A4 1×10^5 cfu/mL) was 0% and the mortality at 60 µg/mL ([3]; 120 h, read-out: % Mortality (5DAT), 3rd instar, clothianidin 60 mg/L, isolate O24G3R 1×10^5 cfu/mL) was 5%. It also gave a mortality at 60 µg/mL ([3]; 120 h, read-out: % Mortality (5DAT), 3rd instar, clothianidin 60 mg/L, isolate O333A4 1×10^5 cfu/mL) of 0%, a mortality at 60 µg/mL ([3]; 144 h, read-out: % Mortality (6DAT), 3rd instar, clothianidin 60 mg/L, isolate O24G3R 1×10^5 cfu/mL) of 11% and a mortality at 60 µg/mL ([3]; 168 h, read-out: % Mortality (7DAT), 3rd instar, clothianidin 60 mg/L, isolate O43NEW 1×10^5 cfu/mL) of 0%. For the same molecule, the mortality at 60 µg/mL ([3]; 168 h, read-out: % Mortality (7DAT), 3rd instar, clothianidin 60 mg/L, isolate O333A4 1×10^5 cfu/mL) was 5%, the mortality at 60 µg/mL ([3]; 240 h, read-out: % Mortality (10DAT), 3rd instar, clothianidin 60 mg/L, isolate O43NEW 1×10^5 cfu/mL) was 0% and the mortality at 60 µg/mL ([3]; 312 h, read-out: % Mortality (13DAT), 3rd instar, clothianidin 60 mg/L, isolate O43NEW 1×10^5 cfu/mL) was 11%. The “% Mort. Chem.” value ([3]; Clothianidin 60 mg/L, 5 DAT) was 5%, the “% Mort. Chem.” value ([3]; Clothianidin 60 mg/L, 7 DAT) was 5% and the “% Mort. Chem.” value ([3]; Clothianidin 60 mg/L, 10 DAT) was 0%.
CCOP(=S)(OCC)Oc1nc(Cl)c(Cl)cc1Cl [Chlorpyrifos] was tested, and the “LT50 (95% confidence intervals)” value ([1]; chlorpyrifos 3.8 mg/L, O43NEW filtrate 1%, alone or combined) was 3.72 days, the “LT50 Chem.” value ([1]; chlorpyrifos 3.8 mg/L) was 3.72 days and the “% Mort. Chem.” value ([1]; chlorpyrifos 3.8 mg/L, 4 DAT) was 74%. The mortality at 3.8 µg/mL ([1]; Plutella xylostella, foliar, 96 h, read-out: % Mortality (4DAT), 2nd instar diamondback moth, chlorpyrifos 3.8 mg/L, O43NEW filtrate 1%, alone or combined, 4 DAT, Abbott's corrected) was 74%, the “LT50 (95% confidence intervals) in days” value ([3]; chlorpyrifos 19 mg/L, isolate O24G3R 1×10^5 cfu/mL) was 8.02 (7.22-8.91) days and the “LT50 (95% confidence intervals) in days” value ([3]; chlorpyrifos 19 mg/L, isolate O24KEK 1×10^5 cfu/mL) was 8.02 (7.22-8.91) days. For the same molecule, the “LT50 (95% confidence intervals) in days” value ([3]; chlorpyrifos 19 mg/L, isolate O43NEW 1×10^5 cfu/mL) was 6.83 (6.09-7.66) days, the “LT50 (95% confidence intervals)” value ([3]; chlorpyrifos 19 mg/L, isolate O333A4 1×10^5 cfu/mL) was 8.02 days and the mortality at 19 µg/mL ([3]; 72 h, read-out: % Mortality (3DAT), 3rd instar, chlorpyrifos 19 mg/L, isolate O43NEW 1×10^5 cfu/mL) was 40%. The mortality at 19 µg/mL ([3]; 96 h, read-out: % Mortality (4DAT), 3rd instar, chlorpyrifos 19 mg/L, isolate O43NEW 1×10^5 cfu/mL) was 45%, the mortality at 19 µg/mL ([3]; 96 h, read-out: % Mortality (4DAT), 3rd instar, chlorpyrifos 19 mg/L, isolate O333A4 1×10^5 cfu/mL) was 35% and the mortality at 19 µg/mL ([3]; 120 h, read-out: % Mortality (5DAT), 3rd instar, chlorpyrifos 19 mg/L, isolate O24G3R 1×10^5 cfu/mL) was 35%. It also gave a mortality at 19 µg/mL ([3]; 120 h, read-out: % Mortality (5DAT), 3rd instar, chlorpyrifos 19 mg/L, isolate O333A4 1×10^5 cfu/mL) of 35%, a mortality at 19 µg/mL ([3]; 144 h, read-out: % Mortality (6DAT), 3rd instar, chlorpyrifos 19 mg/L, isolate O24G3R 1×10^5 cfu/mL) of 35% and a mortality at 19 µg/mL ([3]; 144 h, read-out: % Mortality (6DAT), 3rd instar, chlorpyrifos 19 mg/L, isolate O24KEK 1×10^5 cfu/mL) of 35%. For the same molecule, the mortality at 19 µg/mL ([3]; 144 h, read-out: % Mortality (6DAT), 3rd instar, chlorpyrifos 19 mg/L, isolate O333A4 1×10^5 cfu/mL) was 35%, the mortality at 19 µg/mL ([3]; 168 h, read-out: % Mortality (7DAT), 3rd instar, chlorpyrifos 19 mg/L, isolate O24G3R 1×10^5 cfu/mL) was 40% and the mortality at 19 µg/mL ([3]; 168 h, read-out: % Mortality (7DAT), 3rd instar, chlorpyrifos 19 mg/L, isolate O24KEK 1×10^5 cfu/mL) was 40%. For the same molecule, the mortality at 19 µg/mL ([3]; 168 h, read-out: % Mortality (7DAT), 3rd instar, chlorpyrifos 19 mg/L, isolate O333A4 1×10^5 cfu/mL) was 40%, the “% Mort. Chem.” value ([3]; Chlorpyrifos 19 mg/L, 3 DAT) was 40% and the “% Mort. Chem.” value ([3]; Chlorpyrifos 19 mg/L, 5 DAT) was 35%. For the same molecule, the “% Mort. Chem.” value ([3]; Chlorpyrifos 19 mg/L, 6 DAT (row with O24KEK)) was 35%, the “% Mort. Chem.” value ([3]; Chlorpyrifos 19 mg/L, 6 DAT (row with O333A4)) was 35% and the “LT50 Chem.” value ([3]; Chlorpyrifos alone 19 mg/L) was 6.83 days and 8.02 days.
Cc1cc(C(F)(C(F)(F)F)C(F)(F)F)ccc1NC(=O)c1cccc(I)c1C(=O)NC(C)(C)CS(C)(=O)=O [Flubendiami-de] was tested, and the “LT50 Chem.” value ([4]; Flubendiami-de alone 0.2 mg/L) was 4.83 days and the “LT50 Chem.” value ([4]; Flubendiami-de alone 0.59 mg/L) was 4.99 days.
CC1(C)C(C=C(Cl)Cl)C1C(=O)OC(C#N)c1ccc(F)c(Oc2ccccc2)c1 (stereo not drawn) [Cyfluthrin] was tested, and the “LT50 Chem.” value ([5]; cabbage looper, Cyfluthrin alone […]) was 7.33 days, the “% Mortality (4DAT)” value ([5]; in vivo) was 30% and the “% Mortality (5DAT)” value ([5]; in vivo) was 50%. The “LT75 (95% confidence intervals)” value ([5]; in vivo) was 7.326 days, the “LT50 (95% confidence intervals)” value ([4]; 3rd instar, cyfluthrin […], isolate O43NEW 1×10^4 cfu/mL) was 8.82 days and the “LT50 Chem.” value ([4]; Cyfluthrin alone […]) was 8.82 days.
CCOC(=O)OC1=C(c2cc(C)ccc2C)C(=O)N[C@]12CC[C@@H](OC)CC2 [Spirotetramat] was tested, and the “LT50 (95% confidence intervals) in days” value ([1]; spirotetramat 30 mg/L, 1% O24G3R filtrate) was 23.41 (19.1-28.86) days, the “LT50 (95% confidence intervals) in days” value ([1]; spirotetramat 30 mg/L, 1% O43NEW filtrate) was 21.02 (16.86-26.76) days and the “% Mort. Chem.” value ([1]; spirotetramat 30 mg/L, 6 DAT, O43NEW experiment) was 11%. The “% Mort. Chem.” value ([1]; spirotetramat 30 mg/L, 10 DAT, O24G3R experiment) was 0%, the “LT50 Chem.” value ([1]; spirotetramat 30 mg/L, O24G3R experiment) was 23.41 days and the “LT50 Chem.” value ([1]; spirotetramat 30 mg/L, O43NEW experiment) was 21.02 days. For the same molecule, the mortality at 30 µg/mL ([1]; Plutella xylostella, foliar, 96 h, read-out: % Mortality (4DAT), diamondback moth, spirotetramat 30 mg/L, 1% O43NEW filtrate, 4 DAT, Abbott's corrected) was 5%, the mortality at 30 µg/mL ([1]; Plutella xylostella, foliar, 120 h, read-out: % Mortality (5DAT), diamondback moth, spirotetramat 30 mg/L, 1% O43NEW filtrate, 5 DAT, Abbott's corrected) was 5% and the mortality at 30 µg/mL ([1]; Plutella xylostella, foliar, 144 h, read-out: % Mortality (6DAT), diamondback moth, spirotetramat 30 mg/L, 1% O24G3R filtrate, 6 DAT, Abbott's corrected) was 0%. The mortality at 30 µg/mL ([1]; Plutella xylostella, foliar, 144 h, read-out: % Mortality (6DAT), diamondback moth, spirotetramat 30 mg/L, 1% O43NEW filtrate, 6 DAT, Abbott's corrected) was 11%, the mortality at 30 µg/mL ([1]; Plutella xylostella, foliar, 168 h, read-out: % Mortality (7DAT), diamondback moth, spirotetramat 30 mg/L, 1% O43NEW filtrate, 7 DAT, Abbott's corrected) was 16% and the mortality at 30 µg/mL ([1]; Plutella xylostella, foliar, 240 h, read-out: % Mortality (10DAT), diamondback moth, spirotetramat 30 mg/L, 1% O24G3R filtrate, 10 DAT, Abbott's corrected) was 0%. For the same molecule, the mortality at 30 µg/mL ([1]; Plutella xylostella, foliar, 264 h, read-out: % Mortality (11DAT), diamondback moth, spirotetramat 30 mg/L, 1% O24G3R filtrate, 11 DAT, Abbott's corrected) was 0%, the mortality at 30 µg/mL ([1]; Plutella xylostella, foliar, 336 h, read-out: % Mortality (14DAT), diamondback moth, spirotetramat 30 mg/L, 1% O24G3R filtrate, 14 DAT, Abbott's corrected) was 0% and the “LT50 (95% confidence intervals) in days” value ([3]; spirotetramat 300 mg/L, isolate O43NEW 1×10^5 cfu/mL) was 10.29 (9.39-11.29) days. For the same molecule, the mortality at 300 µg/mL ([3]; 144 h, read-out: % Mortality (6DAT), 3rd instar, spirotetramat 300 mg/L, isolate O43NEW 1×10^5 cfu/mL) was 6%, the mortality at 300 µg/mL ([3]; 168 h, read-out: % Mortality (7DAT), 3rd instar, spirotetramat 300 mg/L, isolate O43NEW 1×10^5 cfu/mL) was 13% and the “% Mort. Chem.” value ([3]; Spirotetramat 300 mg/L, 6 DAT) was 6%. The “LT50 Chem.” value ([3]; Spirotetramat alone 300 mg/L) was 10.29 days.
For CC1(C)[C@H](C(=O)O[C@H](C#N)c2cccc(Oc3ccccc3)c2)[C@@H]1/C=C(\Cl)C(F)(F)F (racemic) [λ-cyhalothrin], the “LT50 (95% confidence intervals)” value ([3]; λ-cyhalothrin […], isolate O43NEW 1×10^5 cfu/mL) was 5.20 days and the “LT50 Chem.” value ([3]; λ-cyhalothrin alone […]) was 5.20 days.
In the case of CC[S+]([O-])c1c(C#N)nn(-c2c(Cl)cc(C(F)(F)F)cc2Cl)c1N (stereo not drawn) [Ethiprole], the “LT50 (95% confidence intervals)” value ([6]; 4th instar larva, ethiprole 120 mg/L, isolate O43NEW 1×10^7 cfu/mL) was 8.90 days, the “% Mort. Chem.” value ([6]; Colorado potato beetle, Ethiprole 120 mg/L, 5 DAT) was 21% and the “LT50 Chem.” value ([6]; Colorado potato beetle, Ethiprole alone 120 mg/L) was 8.90 days. It also gave a mortality at 120 µg/mL ([6]; 72 h, read-out: % Mortality (3DAT)) of 21%, a mortality at 120 µg/mL ([6]; 96 h, read-out: % Mortality (4DAT)) of 21% and a mortality at 120 µg/mL ([6]; 120 h, read-out: % Mortality (5DAT)) of 21%. The mortality at 120 µg/mL ([6]; 144 h, read-out: % Mortality (6DAT)) was 37%.
